Broadly, the Km is the substrate concentration at which the rate is half of its maximum.

pKi: −log10 of the molar value.

For one test, the target named is T1, rHuTS (Homo sapiens, UniProt P04818).
T1 construct: His tag (from pET-28a(+)) (N); made in house; host or cells: E. coli BL21 (DE3)/pET-28a(+)
Put plainly: Inhibition of rHuTS reactions by Tomudex and 5-FdUMP (initial rates). The test is classed as biochemical. The settings on record: for initial rate of rHuTS reaction with inhibitor / rate as % of No Inhibitor: inhibitor 500 nM. The protocol:
(§1) Enzyme Assays and Kinetic Measurements. Thymidylate synthase assays were done in 96 well Costar UV transparent plates in a reaction volume of 200 μL, consisting of 40 mM Tris pH 7.5, 25 mM MgCl2, 1 mM EDTA, 25 mM-mercaptoethanol, 125M dUMP, and 65 μM N5, N10-methylene tetrahydrofolate indicated. Tetrahydrofolate stock solutions were prepared by dissolving tetrahydrofolic acid (Sigma) directly into 0.2M Tris pH 7.5, 0.5 M-mercaptoethanol; stock solutions were stored at −80° C. N5, N10-methylene tetrahydrofolate was prepared by adding 12 μl of 3.8% formaldehyde to 1 ml of a 0.65 mM solution of tetrahydrofolate and incubating for 5 minutes at 37° C. N5, N10-methylene tetrahydrofolate was kept on ice and used within 2 hours of preparation.
Conversion of BVdUMP to fluorescent product(s) by thymidylate synthase was measured in 200 μl thymidylate synthase reactions containing 125M BVdUMP in 96 well Dynex Microfluor Black “U” bottom microtiter plates using an excitation wavelength of 340 nm and emission wavelength of 595 nm. Fluorescence was measured with a Tecan Spectrafluor Plus fluorimeter.

The test system of test [1] is Det551 normal skin fibroblasts. Put plainly: 96-well combination cytotoxicity assay (crystal violet) with NB1011, Det551. On Interaction: key: Syn = synergy; Ant = antagonism; Add = additivity. Particulars: for Interaction: drug combined with NB1011, Det551; for CI (average combination index): drug combined with NB1011, Det551, 96-well crystal violet, 72 hour. It is filed as cell-based, human. The protocol: (§2) Cell lines: Normal human colon epithelial cells (CCD18co) and skin fibroblasts (Det55 1) were purchased from ATCC (Rockville,Md.). MCF7TDX, human breast carcinoma cells resistant to 2 μM Tomudex were obtained from Dr. Patrick Johnston, Queens University, Belfast. […] The MCF7TDX and the H630R10 cell lines have been previously described in Drake, J. C. et al. (1996) and Copur, S. et al. (1995) respectively.
(§3) Culture Conditions: All cells were cultured under standard conditions of 37° C., 95% humidified air, 5% CO2 in RPMI 1640 culture medium containing 10% fetal calf serum (Life Technologies) and penicillin/streptomycin/fungizone. […] The medium was renewed or the cells were passaged about every three days to maintain optimal growth conditions. Normal cells were passaged a maximum of 15 times to avoid senescence.
(§4) Cytotoxicity Studies: 384-well interaction screening assay. 500 cells per well were transferred to a 384-well tissue culture plate (Corning Inc., Corning, N.Y.) and allowed to attach for 24 hours in standard culture conditions. Compounds were then applied in a bidirectional (checker board) pattern (Chou, T. C. and Talalay, P. (1984)). Following a 5-day incubation, the redox indicator dye, alamarBlue (AccuMed International, Westlake, Ohio) was added to each well at a 10% v/v ratio, and fluorescence was monitored at 535 excitation, 595 emission. Cytotoxic effect levels and drug interactions were assessed by the combination index method (Chou, T. C. and Talalay, P. (1984) and Bible, K. C. et al. (1997)), described briefly below. 96-well combination cytotoxicity assay. Exponentially growing cells were transferred at a density of 1.0-5.5×10^3 cells per well to a 96-well tissue culture plate and allowed to attach for 24 hours. Compounds were then applied in duplicate half log serial dilutions. Each compound was tested separately, and mixed together at a single molar ratio approximately equal to the ratio of the individual IC50 values. After an additional 72 hour incubation, cells were washed once with PBS and stained with 0.5% crystal violet in methanol. Plates were washed gently in water to remove unbound stain and allowed to dry overnight. […] Sigmoid curves were fit according to the Hill inhibitory Emax model, and IC50 calculated as the average of three or more separate determinations. Where applicable, the combination index for multiple drug effects was calculated according to the median-effect principle (Chou, T. C. and Talalay, P. (1984)) using the CalcuSyn software from Biosoft (Ferguson, Mo.). Briefly, the ICso and the slope parameter (m) for each agent alone were determined from the median effect plot, an x,y plot of log(D) vs log (fa/fu) based on Chou's median effect equation: fa/fu=(D/Dm)^m [Equation 1]
(§5) Only experiments with linear correlation coefficients (r) >0.9 were accepted for analysis. A combination index (CI) was then calculated to assess synergism or antagonism according to the following equation which assumes an independent mechanism of drug action (mutual exclusivity): CI=(D)1/(Dx)1+(D)2/(Dx)2+(D)1(D)2/(Dx)1 (Dx)2 [Equation 2]
(§6) where (D)1 and (D)2 are the concentrations of drug 1 and drug 2 which combined produce x% inhibition, and (Dx)1 and (Dx)2 are the concentrations of each drug which alone produce x% inhibition. CI=1 indicates an additive interaction, CI<1 indicates synergy, and CI>1 indicates antagonism. For each experiment Cl's from several different effect levels and concentrations of a constant molar ratio were averaged.

For test [2], the system named is CCD18co normal colon epithelial cells. Nature of the test: 96-well combination cytotoxicity assay (crystal violet) with NB1011, CCD18co. It is filed as cell-based, human. The settings on record: drug combined with NB1011, CCD18co; for CI (average combination index): 96-well crystal violet, 72 hour. How it is done:
as §2, §3, §4, §5, §6

The next test has as its system MCF7TDX cells. Put plainly: 96-well combination cytotoxicity assay (crystal violet) with NB1011, MCF7TDX. On Interaction: key: Syn = synergy; Ant = antagonism; Add = additivity. Particulars: drug combined with NB1011, MCF7TDX; for CI (average combination index): 96-well crystal violet, 72 hour. The test is classed as cell-based, human. The protocol: Cell lines: Normal human colon epithelial cells (CCD18co) and skin fibroblasts (Det55 1) were purchased from ATCC (Rockville,Md.). MCF7TDX, human breast carcinoma cells resistant to 2 μM Tomudex were obtained from Dr. Patrick Johnston, Queens University, Belfast.
The medium was renewed or the cells were passaged about every three days to maintain optimal growth conditions. Normal cells were passaged a maximum of 15 times to avoid senescence.
Cytotoxicity Studies: 384-well interaction screening assay. 500 cells per well were transferred to a 384-well tissue culture plate (Corning Inc., Corning, N.Y.) and allowed to attach for 24 hours in standard culture conditions. […] 96-well combination cytotoxicity assay. […] Compounds were then applied in duplicate half log serial dilutions. Each compound was tested separately, and mixed together at a single molar ratio approximately equal to the ratio of the individual IC50 values. After an additional 72 hour incubation, cells were washed once with PBS and stained with 0.5% crystal violet in methanol. Plates were washed gently in water to remove unbound stain and allowed to dry overnight. […] Sigmoid curves were fit according to the Hill inhibitory Emax model, and IC50 calculated as the average of three or more separate determinations. […] Briefly, the ICso and the slope parameter (m) for each agent alone were determined from the median effect plot, an x,y plot of log(D) vs log (fa/fu) based on Chou's median effect equation: fa/fu=(D/Dm)^m [Equation 1]
as §5, §6

The next test deals with T2, Lactobacillus casei TS (Lacticaseibacillus casei, UniProt P00469).
T2 sequence (P00469 1-316): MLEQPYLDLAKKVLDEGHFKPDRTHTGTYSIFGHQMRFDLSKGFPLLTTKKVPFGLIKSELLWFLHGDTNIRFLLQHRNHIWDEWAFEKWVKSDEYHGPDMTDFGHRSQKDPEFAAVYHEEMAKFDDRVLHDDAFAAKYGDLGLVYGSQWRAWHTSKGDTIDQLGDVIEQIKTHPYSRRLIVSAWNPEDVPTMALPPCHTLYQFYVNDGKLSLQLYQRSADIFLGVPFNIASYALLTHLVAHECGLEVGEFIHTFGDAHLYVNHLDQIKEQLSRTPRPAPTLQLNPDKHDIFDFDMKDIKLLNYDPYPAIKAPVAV
Particulars: cited from earlier work.

In test [3] the target is T3, rHuTS (recombinant human thymidylate synthase) (Homo sapiens, UniProt P04818).
T3 construct: His tag (from pET-28a(+)) (N); made in house; host or cells: E. coli BL21 (DE3)/pET-28a(+)
T3 sequence (P04818 whole entry): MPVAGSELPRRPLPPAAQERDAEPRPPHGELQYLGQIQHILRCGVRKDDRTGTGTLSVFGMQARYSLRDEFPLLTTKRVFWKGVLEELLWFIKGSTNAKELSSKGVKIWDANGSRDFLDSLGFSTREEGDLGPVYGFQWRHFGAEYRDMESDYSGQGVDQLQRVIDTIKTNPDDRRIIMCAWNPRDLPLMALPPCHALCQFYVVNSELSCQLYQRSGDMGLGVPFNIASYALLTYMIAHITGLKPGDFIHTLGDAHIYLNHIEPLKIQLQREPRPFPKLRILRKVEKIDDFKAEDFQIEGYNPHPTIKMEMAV
Nature of the test: Enzyme kinetics of rHuTS with dUMP and BVdUMP. The test is classed as biochemical. Particulars: rHuTS. How it is done: Enzyme Preparation. Cloned human thymidylate synthase plasmid pBCHTS was subcloned into E. coli. BL21 (DE3)/pET-28a(+) (Novagen) using the Ndel ñSacI insertion site, in order to add an amino terminal His tag. Enzyme was expressed in E. coli. by induction with IPTG, and purified by affinity chromatography on a Ni^2+ His Bind metal chelation resin (Novagen). The column Ni^2+ His Bind metal chelation column was washed with 20 mM Tris pH 7.9, 5 mM imidazole, 0.5M NaCl; thymidylate synthase activity was eluted with 20 mM Tris pH 7.9, 60 mM imidazole, 0.5M NaCl.
as §1
Enzyme kinetic constants (Km and Vmax) were determined for the human thymidylate synthase substrates dUMP and BVdUMP using the enzyme assay conditions described above. The initial rates of the enzyme reactions was determined by measuring the increase in A340 for the reaction with dUMP, and decrease in A294 for the reaction with BVdUMP. The catalytic efficiency of the enzyme (Kcat/Km) was calculated from the kinetic constants Km and Vmax.

[4] abbreviates: BVdUMP reaction, read-out: Kl (of dUMP).

T1 sequence (P04818 whole entry): as above

Take `O=c1[nH]c(=O)n([C@H]2C[C@H](O)[C@@H](COP(=O)(O)O)O2)cc1F` [5-FdUMP]: the “initial rate of rHuTS reaction with inhibitor” value at rHuTS (BVdUMP + THF) is 44 ± 2 RFU/min; at rHuTS (BVdUMP − THF) it was 93 ± 13 RFU/min; on rHuTS (dUMP + THF), 290 ± 70 nmol/min. In addition, the “rate as % of No Inhibitor” value is listed as “(40%)” at rHuTS (BVdUMP + THF), “(129%)” at rHuTS (BVdUMP − THF) and “(19%)” on rHuTS (dUMP + THF).

Consider `OCCN(CCO)c1nc(N2CCCCC2)c2nc(N(CCO)CCO)nc(N3CCCCC3)c2n1` [Dipyridamole, dipyridamole], for which the Interaction result in test [1] was “Add”; in test [2], “Ant”; in the test with MCF7TDX cells it was “Syn”. The “CI (average combination index)” value in test [1] came to 1.17; in test [2] it was 1.30; with MCF7TDX cells it was 0.51.

As to `COc1cccc2c1C(=O)c1c(O)c3c(c(O)c1C2=O)C[C@@](O)(C(=O)CO)C[C@@H]3O[C@H]1C[C@H](N)[C@H](O)[C@H](C)O1` [Doxorubicin], the Interaction result with MCF7TDX cells is listed as “Ant”.

As for `O=C1[O][Pt]2([NH][C@@H]3CCCC[C@H]3[NH]2)[O]C1=O` [Oxaliplatin], the Interaction entry with MCF7TDX cells is “Ant”.

For `Cc1nc2ccc(CN(C)c3ccc(C(=O)N[C@@H](CCC(=O)O)C(=O)O)s3)cc2c(=O)[nH]1` [Tomudex], the “initial rate of rHuTS reaction with inhibitor” value on rHuTS (BVdUMP + THF) stood at 67 ± 3 RFU/min; at rHuTS (BVdUMP − THF), 34 ± 3 RFU/min; at rHuTS (dUMP + THF) it was 690 ± 40 nmol/min.

In the case of `CC[C@]1(O)C[C@@H]2CN(CCc3c([nH]c4ccccc34)[C@@](C(=O)OC)(c3cc4c(cc3OC)N(C)[C@H]3[C@@](O)(C(=O)OC)[C@H](OC(C)=O)[C@]5(CC)C=CCN6CC[C@]43[C@@H]65)C2)C1` [Vinblastine], the figures for the Interaction entry (in test [1]; in test [2]; in the test with MCF7TDX cells) were “Syn”, “Syn” and “Ant”, respectively.

For the molecule `O=c1ccn([C@H]2C[C@H](O)[C@@H](COP(=O)(O)O)O2)c(=O)[nH]1` [dUMP], the “initial rate of rHuTS reaction, No Inhibitor” value on rHuTS (dUMP + THF, 30° C., increase in A340) came to 1500 ± 20 nmol/min. Further, the results for the pKi (on Lactobacillus casei TS (setting [4]); in test [3] (setting [4])) were 5.70 and 4.76, respectively. The Kcat is 6.4 s⁻¹ at Lactobacillus casei TS and 0.2 s⁻¹ in test [3]. The Michaelis constant (Km) was 3 µM at Lactobacillus casei TS (substrate) and 7.7 µM in test [3] (substrate). In test [3], the “form of inhibition of the BVdUMP reaction (Michaelis-Menton kinetics)” value was “competitive inhibition”.

Turning to `O=[N+]([O-])c1ccc(CSc2ncnc3c2ncn3C2OC(CO)C(O)C2O)cc1` (stereo not shown) [p-Nitrobenzyl-Thioinosine (NBMPR), p-nitrobenzylthioinosine], the results for the Interaction entry (in test [1]; in test [2]; in the test on MCF7TDX cells) were “Ant”, “Ant” and “Syn”, respectively. Also, the entries for the “CI (average combination index)” value (in test [1]; in test [2]; in the test on MCF7TDX cells) were 1.43, 3.93 and 0.57, respectively.

The record behind these values is patent US7462605B2, “Phosphoramidate compounds and methods of use” (Celmed Oncology (USA), Inc., priority 2002, dated 2008).
